Data published in US8592407B2, “Pyrrolo[2,1-c][1,4] benzodiazepine derivatives with dithiocarbamate side chains and process for the preparation thereof” (Council of Scientific & Industrial Research, priority 2008, dated 2013).

Experiments:
[1] = system: sixty human tumour cell lines; assay: cells; details: read-out: GI50 value against sixty cell lines in nine cell panels
Experimental: For each compound, dose response curves for each cell line were measured at a minimum of five concentrations at 10 fold dilutions. A protocol of 48 h continuous drug exposure was used and a sulforhodamine B (SRB) protein assay was used to estimate cell viability or growth. The concentration causing 50% cell growth inhibition (G150), total cell growth inhibition (TGI 0% growth) and 50% cell death (LC50, −50% growth) compared with the control was calculated.

[2] = system: Lung A-549; details: human
[3] = system: Colon HCT-15; details: human
[4] = system: Neuroblastoma IMR-32; details: human
[5] = system: Liver HEP-2; details: human
[6] = system: Colon 502713; details: human

SMILES | GI50 [1] [µM] | Preliminary in vitro cytotoxicity data [2] [%] | Preliminary in vitro cytotoxicity data [3] [%] | Preliminary in vitro cytotoxicity data [4] | Preliminary in vitro cytotoxicity data [5] [%] | Preliminary in vitro cytotoxicity data [6] [%]
COc1cc2c(cc1OCCCN1CCN(C(=S)SCCC(C#N)(c3ccccc3)c3ccccc3)CC1)N=C[C@@H]1CCCN1C2=O [Compound 12b, 3-cyano-3,3-diphenylpropyl 4-(3-[(11aS)-7-(methyloxy)-5-oxo-2,3,5,11a-tetrahydro-1H-benzo[e]pyrrolo[1,2-a][1,4]diazepin-8-yl]oxypropyl)hexahydro-1-pyrazinecarbodithioate] | < 2.69 | – | – | – | – | –
COc1cc2c(cc1OCCCCN1CCN(C(=S)SCCC(C#N)(c3ccccc3)c3ccccc3)CC1)N=C[C@@H]1CCCN1C2=O [Compound 12c, 3-cyano-3,3-diphenylpropyl 4-(4-[(11aS)-7-(methyloxy)-5-oxo-2,3,5,11a-tetrahydro-1H-benzo[e]pyrrolo[1,2-a][1,4]diazepin-8-yl]oxybutyl)hexahydro-1-pyrazinecarbodithioate] | – | 31 | 75 | 88 | 69 | 75
